Assay results as given in PubChem BioAssay (NCI).
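Compound exposure: 48 hours, 5 concentrations, 96-well plates. At the GI50, growth is halved. TGI: total growth inhibition.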

Assays:
Assay in all cases: NCI anticancer screen, dose series, 48 h
786-0 renal = tested on: 786-0 renal
HT29 colon = tested on: HT29 colon
IGROV1 ovarian = tested on: IGROV1 ovarian
K-562 leukemia = tested on: K-562 leukemia
MALME-3M melanoma = tested on: MALME-3M melanoma
OVCAR-5 ovarian = tested on: OVCAR-5 ovarian
SN12C renal = tested on: SN12C renal
SR leukemia = tested on: SR leukemia
UACC-62 melanoma = tested on: UACC-62 melanoma
EKVX NSCLC = tested on: EKVX NSCLC

Row | SMILES | GI50 (786-0 renal) [µM] | TGI (786-0 renal) [µM] | GI50 (HT29 colon) [µM] | TGI (HT29 colon) [µM] | GI50 (IGROV1 ovarian) [µM] | TGI (IGROV1 ovarian) [µM] | GI50 (K-562 leukemia) [µM] | TGI (K-562 leukemia) [µM] | GI50 (MALME-3M melanoma) [µM] | TGI (MALME-3M melanoma) [µM] | GI50 (OVCAR-5 ovarian) [µM] | TGI (OVCAR-5 ovarian) [µM] | GI50 (SN12C renal) [µM] | TGI (SN12C renal) [µM] | GI50 (SR leukemia) [µM] | TGI (SR leukemia) [µM] | GI50 (UACC-62 melanoma) [µM] | TGI (UACC-62 melanoma) [µM] | TGI (EKVX NSCLC) [µM] | GI50 (EKVX NSCLC) [µM]
1 | COc1cc(SC)ccc1C(=O)N1CCCC(C)C1 (stereo unspecified) | > 100 | > 100 | > 100 | > 100 | > 100 | > 100 | 58.7 | > 100 | > 100 | > 100 | > 100 | > 100 | > 100 | > 100 | > 100 | > 100 | > 100 | > 100 | – | –
2 | O=C(O)CNS(=O)(=O)c1ccc(NC(=O)c2cccc([N+](=O)[O-])c2)cc1 | – | > 100 | – | > 100 | – | > 100 | – | > 100 | – | > 100 | – | > 100 | – | > 100 | – | – | – | > 100 | > 100 | –
3 | O=[N+]([O-])C(=C(c1ccccc1)c1ccccc1)[N+](=O)[O-] | – | 27.7 | – | – | – | 23.2 | – | > 100 | – | – | – | 34.5 | – | 30.9 | – | 28.5 | – | 9.56 | – | –
4 | C=C(C)[C@@H]1CC[C@]2(C#N)CC[C@]3(C)[C@H](CC[C@@H]4[C@@]5(C)CCCNC(C)(C)[C@@H]5CC[C@]43C)[C@@H]12 | 1.69 | 3.07 | 1.64 | 3.1 | 1.82 | 3.47 | 2.09 | 10.5 | 1.61 | 3.2 | 2.72 | 7.15 | 1.77 | 3.25 | – | – | 1.96 | 3.6 | 3.83 | 1.79
5 | Fc1ccc(-c2c(-c3ccncc3)n(CCN3CCOCC3)c3cccnc23)cc1 | > 25 | > 25 | > 25 | > 25 | > 25 | > 25 | > 25 | > 25 | > 25 | > 25 | > 25 | > 25 | > 25 | > 25 | > 25 | > 25 | > 25 | > 25 | – | –
6 | OCC(O)C(OC1OC(CO)C(O)C(O)C1O)c1nn(-c2ccc(F)cc2)c2nc3cc(Cl)c(Cl)cc3cc12 (stereo unspecified) | – | > 100 | – | > 100 | – | – | – | > 100 | – | > 100 | – | > 100 | – | > 100 | – | > 100 | – | > 100 | > 100 | –
7 | CC(=O)Nc1[nH]c(=O)[nH]c(=O)c1N(C(C)=O)C(C)=O | – | > 100 | – | > 100 | – | > 100 | – | > 100 | – | > 100 | – | > 100 | – | > 100 | – | – | – | > 100 | > 100 | –
8 | CN(C)c1ccc(/C=N/Nc2ccc(-c3nc4ccccc4[nH]3)cc2)cc1 | 10.6 | 38.6 | – | – | 9.37 | > 50 | 2.86 | 16.3 | – | – | 28.9 | > 50 | > 50 | > 50 | – | – | 8.32 | 24.3 | > 50 | 17.6
9 | COc1ccc2c(c1)[n+]([O-])c(-c1ccc(Cl)c(Cl)c1)c(N)[n+]2[O-] | – | > 100 | – | > 100 | – | 93.2 | – | > 100 | – | 58.5 | – | > 100 | – | > 100 | – | > 100 | – | – | > 100 | –
